Laboratory results published in article PMC5954133, “Functional Characterization of a Small Alarmone Hydrolase in Corynebacterium glutamicum” (Frontiers in Microbiology, 2018).

Target: T1, RelSCg (Corynebacterium glutamicum, UniProt Q8NNR8)
T1 construct: gene Cgl2119; full-length; expressed in E. coli ER2566
T1 sequence (Q8NNR8 1-341): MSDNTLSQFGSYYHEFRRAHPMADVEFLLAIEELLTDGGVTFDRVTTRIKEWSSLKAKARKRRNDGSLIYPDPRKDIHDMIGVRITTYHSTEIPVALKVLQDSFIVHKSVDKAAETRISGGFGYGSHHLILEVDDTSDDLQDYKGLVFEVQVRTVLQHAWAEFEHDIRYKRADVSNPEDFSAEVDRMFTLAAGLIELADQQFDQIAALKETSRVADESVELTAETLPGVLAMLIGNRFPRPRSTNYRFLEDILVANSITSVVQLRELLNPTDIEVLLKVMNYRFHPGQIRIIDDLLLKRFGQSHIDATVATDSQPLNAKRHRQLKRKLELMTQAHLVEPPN
Test: preparative pyrophosphorylation, product identified by HPLC-MS
Assay type: biochemical
Settings: 12 mM ATP, 10 mM MgCl2, 50 mM Tris-HCl pH 8, 16 h

Row | Compound | preparative pyrophosphorylation, product identified by HPLC-MS
1 | Nc1nc2c(ncn2[C@@H]2O[C@H](COP(=O)(O)OP(=O)(O)O)[C@@H](O)[C@H]2O)c(=O)[nH]1 [GDP] | produced by RelSCg-catalyzed pyrophosphorylation of GMP, GDP or GTP
2 | Nc1nc2c(ncn2[C@@H]2O[C@H](COP(=O)(O)O)[C@@H](O)[C@H]2O)c(=O)[nH]1 [GMP] | produced by RelSCg-catalyzed pyrophosphorylation of GMP, GDP or GTP
